{"source": "patent US10882838B2", "about": "“Cannabinergic compounds and uses thereof” (Northeastern University, priority 2012, dated 2021)", "key": {"hCB2 receptor": {"biological_target": "hCB2 receptor (Homo sapiens (Human), UniProt P34972)", "assay": "hCB2 competition-equilibrium binding with [3H]CP-55,940, membranes of HEK293 cells expressing hCB2", "method": "(§1) HEK293 cells expressing hCB1 or hCB2 or mCB2 receptor are used for membrane preparations according to Abadji et al. The resulting pellet is resuspended in 10 mM Tris-chloride, pH 7.4, with 5 mM MgCl2 and 2 mM EDTA (TME), rapidly frozen in liquid nitrogen and stored at −80° C. for no longer than two months. Protein content is assayed by using the Bio-Rad protein assay according to the manufacturer's protocol.\n(§2) All the cannabinoids discussed in this invention are tested for their ability to bind to CB1 and CB2 receptors using membranes from rat brain or HEK293 cells expressing either mCB2 or hCB2, respectively via competition-equilibrium binding using [^3H]CP-55,940. Results are analyzed using nonlinear regression to determine ligand IC50 (Prism by GraphPad Software, Inc.), and Ki values are calculated from the IC50. IC50 and Ki values are determined from at least three independent experiments."}, "CB1 receptor": {"biological_target": "CB1 receptor (Rattus norvegicus (Rat), UniProt P20272)", "assay": "rCB1 competition-equilibrium binding with [3H]CP-55,940, rat brain membranes", "method": "Frozen rat brains (CB1 source) are obtained from Pel-Freeze Biologicals (Rogers, Ak.) and stored at −80° C. until use. Membranes are prepared according to the method described by Dodd et al. and used in our laboratory as reported.\nas §2"}, "mCB2 receptor": {"biological_target": "mCB2 receptor (Mus musculus (Mouse), UniProt P47936)", "assay": "mCB2 competition-equilibrium binding with [3H]CP-55,940, membranes of HEK293 cells expressing mCB2", "method": "as §1, §2"}, "[1]": {"conditions": "HEK293 cells expressing hCB2, [3H]CP-55,940, read-out: hCB2 Ki"}, "[2]": {"conditions": "rat brain membranes, [3H]CP-55,940, read-out: rCB1 Ki"}, "[3]": {"conditions": "HEK293 cells expressing mCB2, [3H]CP-55,940, read-out: mCB2 Ki"}}, "note": "Like-named read-outs stand apart in the source and are kept apart here."}
{"molecule": "CC1=CC[C@H]2[C@@H](C1)c1c(O)cc(C(C)(C)C(=O)O)cc1OC2(C)C", "note": "[Compound 1.1, 2-((6aS,10aR)-6a,7,10,10a-tetrahydro-1-hydroxy-6,6,9-trimethyl-6H-benzo[c]chromen-3-yl)-2-methylpropanoic Acid]", "values": [{"measurement": "Ki", "setting": "hCB2 receptor", "result": "> 10000", "unit": "nM"}, {"measurement": "Ki", "setting": "CB1 receptor", "result": "> 10000", "unit": "nM"}, {"measurement": "Ki", "setting": "mCB2 receptor", "result": "> 10000", "unit": "nM"}]}
{"molecule": "CCCCOC(=O)C(C)(C)c1cc(O)c2c(c1)OC(C)(C)[C@H]1CC=C(C)C[C@@H]21", "note": "[Compound 1.4, Butyl-2-((6aS, 10aR)-6a, 7, 10, 10a-tetrahydro-1-hydroxy-6,6,9-trimethyl-6H-benzo[c]chromen-3-yl)-2-methylpropanoate]", "values": [{"measurement": "Ki", "setting": "hCB2 receptor; [1]", "result": 0.7, "unit": "nM"}, {"measurement": "Ki", "setting": "CB1 receptor; [2]", "result": 0.6, "unit": "nM"}, {"measurement": "Ki", "setting": "mCB2 receptor; [3]", "result": 0.6, "unit": "nM"}]}
{"molecule": "CC1=CC[C@H]2[C@@H](C1)c1c(O)cc(C(C)(C)C(=O)OCCCCCBr)cc1OC2(C)C", "note": "[Compound 1.5, 5-bromopentyl-2-((6aS,10aR)-6a,7,10,10a-tetrahydro-1-hydroxy-6,6,9-trimethyl-6H-benzo[c]chromen-3-yl)-2-methylpropanoate]", "values": [{"measurement": "Ki", "setting": "hCB2 receptor; [1]", "result": 0.6, "unit": "nM"}, {"measurement": "Ki", "setting": "CB1 receptor; [2]", "result": 1.2, "unit": "nM"}, {"measurement": "Ki", "setting": "mCB2 receptor; [3]", "result": 0.5, "unit": "nM"}]}
{"molecule": "CC1=CC[C@@H]2[C@@H](C1)c1c(O)cc(C(C)(C)C(=O)OCCCBr)cc1OC2(C)C", "note": "[Compound 1.7, 3-bromopropyl-2-((6aR, 10aR)-6a, 7, 10, 10a-tetrahydro-1-hydroxy-6,6,9-trimethyl-6H-benzo[c]chromen-3-yl)-2-methylpropanoate]", "values": [{"measurement": "Ki", "setting": "hCB2 receptor; [1]", "result": 0.6, "unit": "nM"}, {"measurement": "Ki", "setting": "CB1 receptor; [2]", "result": 0.8, "unit": "nM"}, {"measurement": "Ki", "setting": "mCB2 receptor; [3]", "result": 1.1, "unit": "nM"}]}
{"molecule": "CC1=CC[C@@H]2[C@@H](C1)c1c(O)cc(C(C)(C)C(=O)OCCCC#N)cc1OC2(C)C", "note": "[Compound 1.8, 3-cyanopropyl-2-((6aR,10aR)-6a,7,10,10a-tetrahydro-1-hydroxy-6,6,9-trimethyl-6H-benzo[c]chromen-3-yl)-2-methylpropanoate]", "values": [{"measurement": "Ki", "setting": "hCB2 receptor; [1]", "result": 1.4, "unit": "nM"}, {"measurement": "Ki", "setting": "CB1 receptor; [2]", "result": 0.5, "unit": "nM"}, {"measurement": "Ki", "setting": "mCB2 receptor; [3]", "result": 0.7, "unit": "nM"}]}
{"molecule": "CCCSC(=O)C(C)(C)c1cc(O)c2c(c1)OC(C)(C)[C@@H]1CC=C(C)C[C@@H]21", "note": "[Compound 1.30, S-propyl-2-((6aR,10aR)-6a,7,10,10a-tetrahydro-1-hydroxy-6,6,9-trimethyl-6H-benzo[c]chromen-3-yl)-2-methylpropanethioate]", "values": [{"measurement": "Ki", "setting": "hCB2 receptor; [1]", "result": 0.7, "unit": "nM"}, {"measurement": "Ki", "setting": "CB1 receptor; [2]", "result": 0.5, "unit": "nM"}]}
{"molecule": "CC1=CC[C@@H]2[C@@H](C1)c1c(O)cc(C(C)(C)CO)cc1OC2(C)C", "note": "[Compound 1.32, (6aR,10 aR)-3-(1-hydroxy-2-methylpropan-2-yl)-6,6,9-trimethyl-6a,7,10,10a-tetrahydro-6H-benzo[c]chromen-1-ol]", "values": [{"measurement": "Ki", "setting": "CB1 receptor; [2]", "result": 447, "unit": "nM"}]}
{"molecule": "CCCCC(=O)OCC(C)(C)c1cc(O)c2c(c1)OC(C)(C)[C@@H]1CC=C(C)C[C@@H]21", "note": "[Compound 1.33, 2-((6aR, 10aR)-6a,7,10,10a-tetrahydro-1-hydroxy-6,6,9-trimethyl-6H-benzo[c]chromen-3-yl)-2-methyl propylpentanoate]", "values": [{"measurement": "Ki", "setting": "hCB2 receptor; [1]", "result": 1, "unit": "nM"}, {"measurement": "Ki", "setting": "CB1 receptor; [2]", "result": 0.5, "unit": "nM"}]}
{"molecule": "CCCCCCC(C)(C)c1cc(O)c2c(c1)OC(C)(C)[C@@H]1CCOC(=O)C[C@@H]21", "note": "[Compound 3.11, (5 aR,11bR)-11-hydroxy-6,6-dimethyl-9-(2-methyloctan-2-yl)-4,5,5a,6-tetrahydro-1H-oxepino[4,5-c]chromen-2(11bH)-one]", "values": [{"measurement": "Ki", "setting": "CB1 receptor; [2]", "result": 99, "unit": "nM"}, {"measurement": "Ki", "setting": "mCB2 receptor; [3]", "result": 802, "unit": "nM"}]}
{"molecule": "CCOC(=O)C(C)(C)c1cc(O)c(-c2cccc(C#N)c2)c(O)c1", "note": "[Compound 4.2, Ethyl 2-(3′-cyano-2,6-dihydroxybiphenyl-4-yl)-2-methylpropanoate]", "values": [{"measurement": "Ki", "setting": "hCB2 receptor; [1]", "result": 94.8, "unit": "nM"}, {"measurement": "Ki", "setting": "CB1 receptor; [2]", "result": 3660, "unit": "nM"}]}
{"molecule": "CCOC(=O)C(C)(C)c1cc(O)c(-c2cc(Cl)cc(Cl)c2)c(OC)c1", "note": "[Compound 4.7, ethyl 2-(3′,5′-dichloro-2-hydroxy-6-methoxybiphenyl-4-yl)-2-methylpropanoate]", "values": [{"measurement": "Ki", "setting": "hCB2 receptor; [1]", "result": 700, "unit": "nM"}, {"measurement": "Ki", "setting": "CB1 receptor; [2]", "result": 1000, "unit": "nM"}]}
{"molecule": "CCOC(=O)C(C)(C)c1cc(O)c(-c2cc(Cl)cc(Cl)c2)c(O)c1", "note": "[Compound 4.8, Ethyl 2-(3′,5′-dichloro-2,6-dihydroxybiphenyl-4-yl)-2-methylpropanoate]", "values": [{"measurement": "Ki", "setting": "hCB2 receptor; [1]", "result": 20.9, "unit": "nM"}]}
